Consider 34 compounds from US11203600B2 (Denali Therapeutics Inc., priority 2017, dated 2021).

The test has as its target GST-hRIPK1 (8-327) (Homo sapiens (Human), UniProt Q13546). As to the kind of experiment: Fluorescent Polarization Binding (FP Binding) assay, RIPK1. To be noted: mean of at least two independent experiments. In outline: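 Compound displacement of 5 nM labelled ligand from 10 nM GST-hRIPK1 (8-327) was read as FP (531/595 nm) after 30 min at RT. Buffer: HEPES pH 7.5, NaCl, MgCl2, CHAPS, DTT, Pluronic; 1% DMSO final. IC50s were averaged over at least two independent runs.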

Setting [1] is: 10 nM GST-hRIPK1 (8-327), 5 nM fluorescent-labeled ligand, RT, 30 min.

Sequence of GST-hRIPK1 (8-327) (Q13546 8-327): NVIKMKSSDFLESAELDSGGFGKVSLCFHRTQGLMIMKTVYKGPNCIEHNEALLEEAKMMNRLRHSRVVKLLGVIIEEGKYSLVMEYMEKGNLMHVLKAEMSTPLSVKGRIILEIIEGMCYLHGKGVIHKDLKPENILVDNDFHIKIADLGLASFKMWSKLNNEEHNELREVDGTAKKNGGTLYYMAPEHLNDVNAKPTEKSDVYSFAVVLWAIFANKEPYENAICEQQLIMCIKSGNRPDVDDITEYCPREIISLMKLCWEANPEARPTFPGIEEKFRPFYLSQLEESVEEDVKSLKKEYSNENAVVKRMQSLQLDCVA

For the compound `COc1nc(N2CCC(OC)(C(=O)N3CCOc4c(C#N)cncc4C3)CC2)ncc1F` [Example 194, 4-[1-(5-fluoro-4-methoxy-pyrimidin-2-yl)-4-methoxy-piperidine-4-carbonyl]-3,5-dihydro-2H-pyrido[3,4-f][1,4]oxazepine-9-carbonitrile], the IC50 (usually the midpoint of a concentration-inhibition curve) under setting [1] is 0.0001 to 0.1 µM.

The compound `N#Cc1cncc2c1OCCN(C(=O)C1CCN(c3ccnc4ccnn34)C[C@@H]1F)C2` (stereo partly drawn) [Example 249, 4-[(3,4)-trans-3-fluoro-1-pyrazolo[1,5-a]pyrimidin-7-yl-piperidine-4-carbonyl]-3,5-dihydro-2H-pyrido[3,4-f][1,4]oxazepine-9-carbonitrile] displayed an IC50 (GST-hRIPK1 (8-327)) of 0.0001 to 0.1 µM.

Under setting [1], `N#Cc1cncc2c1OCCN(C(=O)C1(F)CCN(c3ccnc4nccn34)CC1)C2` [Example 180] yielded an IC50 of 0.1 to 1 µM.

As to `COc1ccc(N2CCC(F)(C(=O)N3CCOc4c(C#N)cncc4C3)CC2)nn1` [Example 115, 4-[4-fluoro-1-(6-methoxypyridazin-3-yl)piperidine-4-carbonyl]-3,5-dihydro-2H-pyrido[3,4-f][1,4]oxazepine-9-carbonitrile], under setting [1], the IC50 is 0.1 to 1 µM. With `CCC(C)(C)C(=O)N1CCCc2ccccc2C1` [Example 4, 2,2-dimethyl-1-(1,3,4,5-tetrahydro-2-benzazepin-2-yl)butan-1-one], the IC50 under setting [1] was 0.1 to 1 µM. As to `CC(C)(C)C(=O)N1CCOc2c(F)cncc2C1` [Example 80, 1-(9-fluoro-3,5-dihydro-2H-pyrido[3,4-f][1,4]oxazepin-4-yl)-2,2-dimethyl-propan-1-one], the IC50 under setting [1] was 0.1 to 1 µM.

For the compound `CC(C)(C(=O)N1CCOc2c(C#N)cc(F)cc2C1)C(F)F` [Example 22, 4-(3,3-difluoro-2,2-dimethyl-propanoyl)-7-fluoro-3,5-dihydro-2H-1,4-benzoxazepine-9-carbonitrile], under setting [1], the IC50 fell in the range of 0.0001 to 0.1 µM. The compound `CC(C)(C(=O)N1CCOc2c(C#N)cncc2C1)[C@H]1C[C@@H](Cn2ccnn2)C1` [Example 293, cis-4-[2-methyl-2-[3-(triazol-1-ylmethyl)cyclobutyl]propanoyl]-3,5-dihydro-2H-pyrido [3,4-f][1,4]oxazepine-9-carbonitrile] displayed an IC50 (GST-hRIPK1 (8-327)) of over 1 µM. Take `C[C@@H]1COc2c(C#N)cncc2CN1C(=O)C(C)(C)C` [Example 78, (3R)-4-(2,2-dimethylpropanoyl)-3-methyl-3,5-dihydro-2H-pyrido[3,4-f][1,4]oxazepine-9-carbonitrile]: under setting [1], the IC50 lay in the range of 0.0001 to 0.1 µM.

With `COC1(C(=O)N2CCOc3c(F)cncc3C2)CCN(c2ncnc(OCC(F)F)n2)CC1` [Example 209, [1-[4-(2,2-difluoroethoxy)-1,3,5-triazin-2-yl]-4-methoxy-4-piperidyl]-(9-fluoro-3,5-dihydro-2H-pyrido[3,4-f][1,4]oxazepin-4-yl)methanone], the IC50 (GST-hRIPK1 (8-327)) fell in the range of 0.1 to 1 µM. Take `N#Cc1cncc2c1OCCN(C(=O)C1CCN(c3ncnc4ccnn34)CC1(F)F)C2` (stereo not shown) [Example 220]: the IC50 (GST-hRIPK1 (8-327)) was 0.1 to 1 µM. In turn, `CC(C)(C(=O)N1CCOc2c(C#N)cncc2C1)C(F)(F)F` [Example 45, 4-(3,3,3-trifluoro-2,2-dimethyl-propanoyl)-3,5-dihydro-2H-pyrido[3,4-f][1,4]oxazepine-9-carbonitrile] showed an IC50 under setting [1] of 0.0001 to 0.1 µM. Compound `CC(C#N)C(C)(C)C(=O)N1CCOc2c(F)cncc2C1` (stereo not shown) [Example 71, 4-(9-fluoro-2,3-dihydropyrido[3,4-f][1,4]oxazepin-4(5H)-yl)-2,3,3-trimethyl-4-oxobutanenitrile] registered an IC50 under setting [1] of over 1 µM. Take `CC1COc2ccccc2CN1C(=O)C(C)(C)C(F)F` (stereo not shown) [Example 21, 3,3-difluoro-2,2-dimethyl-1-(3-methyl-2,3-dihydrobenzo[f][1,4]oxazepin-4(5H)-yl)propan-1-one]: the IC50 under setting [1] lay in the range of 0.0001 to 0.1 µM. Consider `N#Cc1cncc2c1OCCN(C(=O)C1(F)CCN(c3cnc(F)c(F)c3)CC1)C2` [Example 193, 4-[1-(5,6-difluoro-3-pyridyl)-4-fluoro-piperidine-4-carbonyl]-3,5-dihydro-2H-pyrido[3,4-f][1,4]oxazepine-9-carbonitrile], for which the half-maximal inhibitory concentration (IC50) under setting [1] was over 1 µM. Under setting [1], `CC(C)(C(=O)N1CCOc2ccc(F)cc2C1)C(F)F` [Example 33, 3,3-difluoro-1-(7-fluoro-2,3,4,5-tetrahydro-1,4-benzoxazepin-4-yl)-2,2-dimethylpropan-1-one] displayed an IC50 of 0.0001 to 0.1 µM. Still for that read-out and setting: the same measure for `N#Cc1cncc2c1OCCN(C(=O)C1(F)CCN(c3ncc(OC(F)F)cn3)CC1)C2` [Example 102, 4-[1-[5-(difluoromethoxy)pyrimidin-2-yl]-4-fluoro-piperidine-4-carbonyl]-3,5-dihydro-2H-pyrido[3,4-f][1,4]oxazepine-9-carbonitrile]: 0.1 to 1 µM; for `N#Cc1cncc2c1OCCN(C(=O)C(F)(F)C(F)(F)C(F)(F)F)C2` [Example 143, 4-(2,2,3,3,4,4,4,-heptafluorobutanoyl)-3,5-dihydro-2H-pyrido[3,4-f][1,4]oxazepine-9-carbonitrile]: over 1 µM. For the compound `CCC(C)(C(=O)N1CCOc2c(C#N)cncc2C1)C(F)F` (single isomer, unassigned) [Example 260, 4-(2-(Difluoromethyl)-2-methylbutanoyl)-2,3,4,5-tetrahydropyrido[3,4-f][1,4]oxazepine-9-carbonitrile], for the setting “GST-hRIPK1 (8-327)”, the IC50 lay within 0.0001 to 0.1 µM. Under setting [1], `CCC(C)(CC#N)C(=O)N1CCOc2c(C#N)cncc2C1` (stereo not shown) [Example 74, 4-[2-(cyanomethyl)-2-methyl-butanoyl]-3,5-dihydro-2H-pyrido[3,4-f][1,4]oxazepine-9-carbonitrile] gave an IC50 of 0.0001 to 0.1 µM.

Under setting [1], `N#Cc1cncc2c1OCCN(C(=O)C13CCN(c4ncc(F)cn4)CC1C3(F)F)C2` (stereo not shown) [Example 99, 4-[7,7-difluoro-3-(5-fluoropyrimidin-2-yl)-3-azabicyclo[4.1.0]heptane-6-carbonyl]-3,5-dihydro-2H-pyrido[3,4-f][1,4]oxazepine-9-carbonitrile] showed an IC50 of 0.1 to 1 µM. Same read-out and setting: the same measure for `N#Cc1cncc2c1OCCN(C(=O)C1(F)CCN(c3ncncc3F)CC1)C2` [Example 112, 4-(4-fluoro-1-(5-fluoropyrimidin-4-yl)piperidine-4-carbonyl)-2,3,4,5-tetrahydropyrido[3,4-f][1,4]oxazepine-9-carbonitrile]: 0.1 to 1 µM.

Compound `N#Cc1cncc2c1OCCN(C(=O)C1CCN(c3nccn4ncnc34)CC1F)C2` (single isomer, unassigned) [Example 302, 4-[3-Fluoro-1-([1,2,4]triazolo[1,5-a]pyrazin-8-yl)piperidine-4-carbonyl]-3,5-dihydro-2H-pyrido[3,4-f][1,4]oxazepine-9-carbonitrile] showed an IC50 (GST-hRIPK1 (8-327)) of 0.0001 to 0.1 µM. The compound `CC(C(=O)N1CCOc2c(C#N)cncc2C1)(C(F)(F)F)C(F)(F)F` [Example 152, 4-[3,3,3-trifluoro-2-methyl-2-(trifluoromethyl)propanoyl]-3,5-dihydro-2H-pyrido[3,4-f][1,4]oxazepine-9-carbonitrile] had an IC50 under setting [1] of 0.1 to 1 µM.

Regarding `N#Cc1cncc2c1OCCN(C(=O)C1(F)CCN(c3ncc4c(n3)COC4)CC1)C2` [Example 165, 4-[1-(5,7-dihydrofuro[3,4-d]pyrimidin-2-yl)-4-fluoro-piperidine-4-carbonyl]-3,5-dihydro-2H-pyrido[3,4-f][1,4]oxazepine-9-carbonitrile], the IC50 under setting [1] is 0.1 to 1 µM.

The compound `CC(C)(C(=O)N1CCOc2c(F)cncc2C1)C(F)F` [Example 55, 3,3-difluoro-1-(9-fluoro-3,5-dihydro-2H-pyrido[3,4-f][1,4]oxazepin-4-yl)-2,2-dimethyl-propan-1-one] had an IC50 under setting [1] of 0.1 to 1 µM.

The compound `CCC1(C(=O)N2CCOc3c(C#N)cncc3C2)CC1` [Example 63, 4-(1-ethylcyclopropanecarbonyl)-3,5-dihydro-2H-pyrido[3,4-f][1,4]oxazepine-9-carbonitrile] came in with an IC50 under setting [1] of 0.1 to 1 µM. For the compound `O=C(C1CCN(c2ncc(F)cn2)CC1)N1CCOc2c(F)cncc2C1` [Example 156, (9-fluoro-3,5-dihydro-2H-pyrido[3,4-f][1,4]oxazepin-4-yl)-[1-(5-fluoropyrimidin-2-yl)-4-piperidyl]methanone], under setting [1], the IC50 fell in the range of 0.0001 to 0.1 µM. In turn, `CCC(C)(C(=O)N1CCOc2c(C#N)cncc2C1)C(F)F` (stereo not shown) [Example 57, 4-(2-(difluoromethyl)-2-methylbutanoyl)-2,3,4,5-tetrahydropyrido[3,4-f][1,4]oxazepine-9-carbonitrile] showed an IC50 under setting [1] of 0.0001 to 0.1 µM. For the compound `N#Cc1cncc2c1OCCN(C(=O)C1CCN(c3ccnc4ccnn34)CC1(F)F)C2` (stereo not shown) [Example 221, 4-(3,3-difluoro-1-pyrazolo[1,5-a]pyrimidin-7-yl-piperidine-4-carbonyl)-3,5-dihydro-2H-pyrido[3,4-f][1,4]oxazepine-9-carbonitrile], for the setting “GST-hRIPK1 (8-327)”, the IC50 was 0.1 to 1 µM.

Consider `COC1(C(=O)N2CCOc3c(F)cncc3C2)CCN(c2ncc(F)c(OCC(F)F)n2)CC1` [Example 132, (1-(4-(2,2-difluoroethoxy)-5-fluoropyrimidin-2-yl)-4-methoxypiperidin-4-yl)(9-fluoro-2,3-dihydropyrido[3,4-f][1,4]oxazepin-4(5H)-yl)methanone], for which the IC50 under setting [1] was in the range of 0.0001 to 0.1 µM. Compound `O=C(C1CCN(c2ncc(F)cn2)CC1)N1Cc2ccccc2CCO1` [Example 39, 2-[1-(5-fluoropyrimidin-2-yl)piperidine-4-carbonyl]-1,2,4,5-tetrahydro-3,2-benzoxazepine] registered an IC50 under setting [1] of 0.1 to 1 µM. With `Cn1ccc2nc(N3CCC(F)(C(=O)N4CCOc5c(C#N)cncc5C4)CC3)ncc21` [Example 108, 4-[4-fluoro-1-(5-methylpyrrolo[3,2-d]pyrimidin-2-yl)piperidine-4-carbonyl]-3,5-dihydro-2H-pyrido[3,4-f][1,4]oxazepine-9-carbonitrile], the IC50 under setting [1] lay within 0.1 to 1 µM. Compound `N#Cc1cncc2c1OCCN(C(=O)C1CCN(c3ncc(F)cn3)CC1(F)F)C2` (single isomer, unassigned) [Example 308, 4-[3,3-Difluoro-1-(5-fluoropyrimidin-2-yl)piperidine-4-carbonyl]-3,5-dihydro-2H-pyrido[3,4-f][1,4]oxazepine-9-carbonitrile] had an IC50 (GST-hRIPK1 (8-327)) of 0.0001 to 0.1 µM.
